From patent US20220226508A1, “METHODS AND COMPOSITIONS FOR TREATING EPILEPSY” (THE REGENTS OF THE UNIVERSITY OF CALIFORNIA, priority 2019, published 2022)
Entries after “also recorded” stand apart in the source; their conditions may differ. Like-named read-outs stand apart in the source and are kept apart here.

Experiments:
5-HT7 = 5-HT7 (Homo sapiens, UniProt P34969); conditions: read-out: binding affinity (Ki) 5-HT7; cited from earlier work
scn1lab mutant zebrafish [1] = experiment: Local field potential (LFP) electrophysiology of electrographic seizure events; format: in vivo, zebrafish (Danio rerio)
Description: For electrophysiology studies, zebrafish larvae were anesthetized with cold and immobilized in 1.2% agarose; local field potential (LFP) recordings were obtained from forebrain or optic tectum structures using a single-electrode approach, as previously described (Baraban, S. C. et al., Neuroscience, 131, 759-768, 2005). Agarose-embedded LFP recording sessions of 10 min were obtained at 1 kHz. Epileptiform events were identified post hoc and defined as multi-spike or poly-spike upward or downward membrane deflections greater than 3× baseline noise level and 150-250 ms in duration (interictal-like) or greater than 5× baseline noise, multi-spike and >500 ms in duration (ictal-like); both events were counted using threshold detection settings in Clampfit (Molecular Devices; Sunnyvale, Calif.). During electrophysiology experiments larvae were continuously monitored for blood flow and heart rate using an Axiocam digital camera at video frame rate.
Monitoring electrographic brain activity to confirm seizure suppression is an essential assay to eliminate false positives from behavioral testing (Griffin, A. et al., Frontiers in Pharmacology, 9, 2018). By placing a microelectrode into a visually identified brain region of an agar-immobilized zebrafish larval, stable local field potential (LFP) recordings can be monitored for several hours (Baraban, S. C. et al., Nat Commun, 4, 2410, 2013). At 5 dpf LFP recordings of scn1Lab zebrafish larvae show an average of 250 abnormal electrographic seizure events during a 10 min recording epoch.

human 5-HT2AR = target: T1, human 5-HT2AR (Homo sapiens, UniProt P28223); conditions: read-out: binding affinity (Ki) 5-HT2A / 5-HT2AR, cited from earlier work
T1 construct: expressed in transfected cells

scn1lab mutant zebrafish [2] = experiment: Locomotion assay of high-velocity seizure-like swim behavior; format: in vivo, zebrafish (Danio rerio)
Excerpt: Zebrafish maintenance. Zebrafish were raised under standard laboratory conditions in accordance with requirements outlined in the Guide for the Care and Use of Animals (ebrary Inc., 2011) and experiments were approved by the Institutional Animal Care and Use Committee (protocol #AN108659-03). Embryos were obtained by natural spawning of scn1lab (didy^s552) heterozygous animals that had been outcrossed to TL strain. Homozygous scn1lab mutants (n=2500) have dispersed melanosomes and appear visibly darker by 3 dpf compared to WT larvae.
Seizure monitoring. At 5 dpf individual zebrafish larvae were placed into a single well of a clear flat-bottomed 96-well microplate containing embryo media. Larvae were selected randomly as sex determination is not possible at this stage of development. All drug screening experiments were conducted in an unbiased manner by investigators blinded to the test compounds and all files coded for post hoc analysis. Microplates were placed inside the DanioVision and acclimated for 20 min at room temperature. Locomotion plots were obtained for each well at a recording epoch of 10 min using EthoVision XT software (DanioVision, Noldus Information Technology). Seizure scoring was performed using the following three-stage scale established for pentylenetetrazole-induced seizures: Stage 0, no or very little swim activity; Stage I, increased, brief bouts of swim activity; Stage II, rapid “whirlpool-like” circling swim behavior; and Stage III, paroxysmal whole-body clonus-like convulsions, and a brief loss of posture. WT fish are typically scored at Stage 0 or I. Plots were analyzed for distance travelled (in millimeters) and mean velocity (in millimeters per second). After 90 mins of drug exposure larvae were examined for toxic side-effects. Compounds that decreased or stopped the larva heartbeat, or reduced or eliminated the escape response when touched, were considered toxic.
Statistics. Data are presented as the mean±standard error of the mean (SEM), unless otherwise stated. For behavior analysis, the threshold for a change in mean swim velocity ≥40% (>1.5×SD of 250 control treated scn1lab) is considered significant. For comparison between more than two groups one-way ANOVA analysis was used. […] Differences considered statistically significant are indicated with asterisks (*P<0.05; **P<0.01).

5-HT Transporter = 5-HT Transporter (Homo sapiens, UniProt P31645); conditions: read-out: binding affinity (Ki) 5-HT Transporter; cited from earlier work
5-HT1A = target: T2, 5-HT1A (Homo sapiens, UniProt P08908); conditions: read-out: binding affinity (Ki) 5-HT1A; cited from earlier work
T2 sequence (P08908 1-422): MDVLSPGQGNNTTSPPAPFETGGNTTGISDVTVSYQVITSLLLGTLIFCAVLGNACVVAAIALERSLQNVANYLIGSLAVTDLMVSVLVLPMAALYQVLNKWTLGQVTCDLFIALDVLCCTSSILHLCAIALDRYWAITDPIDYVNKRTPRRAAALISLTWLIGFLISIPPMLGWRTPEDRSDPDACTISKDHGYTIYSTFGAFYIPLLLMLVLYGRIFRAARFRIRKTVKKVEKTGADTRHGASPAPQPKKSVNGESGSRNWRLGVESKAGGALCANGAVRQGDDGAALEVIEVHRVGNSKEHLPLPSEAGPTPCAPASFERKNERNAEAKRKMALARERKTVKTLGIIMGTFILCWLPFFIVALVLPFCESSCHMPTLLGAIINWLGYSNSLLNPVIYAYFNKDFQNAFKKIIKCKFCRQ

5-HT6 = 5-HT6 (Homo sapiens, UniProt P50406); conditions: read-out: binding affinity (Ki) 5-HT6; cited from earlier work
5-HT1B = 5-HT1B (Homo sapiens, UniProt P28222); conditions: read-out: binding affinity (Ki) 5-HT1B; cited from earlier work
Adrenergic Alpha1B = target: T3, Adrenergic Alpha1B (Homo sapiens, UniProt P35368); conditions: read-out: binding affinity (Ki) Adrenergic Alpha1B; cited from earlier work
T3 sequence (P35368 1-520): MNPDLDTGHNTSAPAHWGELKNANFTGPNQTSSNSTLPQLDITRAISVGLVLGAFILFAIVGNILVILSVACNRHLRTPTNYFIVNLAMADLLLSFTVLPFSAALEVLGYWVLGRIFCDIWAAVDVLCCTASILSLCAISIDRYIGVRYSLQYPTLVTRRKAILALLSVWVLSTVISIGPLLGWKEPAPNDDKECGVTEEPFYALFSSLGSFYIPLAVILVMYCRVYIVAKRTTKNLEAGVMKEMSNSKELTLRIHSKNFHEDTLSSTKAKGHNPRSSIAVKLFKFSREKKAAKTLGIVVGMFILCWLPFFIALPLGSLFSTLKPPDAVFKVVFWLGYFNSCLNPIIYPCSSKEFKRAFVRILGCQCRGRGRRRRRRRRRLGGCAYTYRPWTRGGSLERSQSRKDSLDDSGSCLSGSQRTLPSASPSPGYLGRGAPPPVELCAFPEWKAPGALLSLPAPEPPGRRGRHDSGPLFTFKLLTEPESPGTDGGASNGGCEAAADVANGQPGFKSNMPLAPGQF

5-HT1D = 5-HT1D (Homo sapiens, UniProt P28221); conditions: read-out: binding affinity (Ki) 5-HT1D; cited from earlier work
[3] = target: Norepinephrine Transporter (Homo sapiens, UniProt P23975); conditions: read-out: binding affinity (Ki) Norepinephrine Transporter; cited from earlier work
5-HT5 = 5-HT5 (Homo sapiens, UniProt P47898); conditions: read-out: binding affinity (Ki) 5-HT5; cited from earlier work
human 5-HT2CR = target: T4, human 5-HT2CR (Homo sapiens, UniProt P28335); conditions: known drugs and commercial compounds; read-out: binding affinity (Ki) 5-HT2C / 5-HT2CR; cited from earlier work
T4 construct: expressed in transfected cells
T4 sequence (P28335 33-458): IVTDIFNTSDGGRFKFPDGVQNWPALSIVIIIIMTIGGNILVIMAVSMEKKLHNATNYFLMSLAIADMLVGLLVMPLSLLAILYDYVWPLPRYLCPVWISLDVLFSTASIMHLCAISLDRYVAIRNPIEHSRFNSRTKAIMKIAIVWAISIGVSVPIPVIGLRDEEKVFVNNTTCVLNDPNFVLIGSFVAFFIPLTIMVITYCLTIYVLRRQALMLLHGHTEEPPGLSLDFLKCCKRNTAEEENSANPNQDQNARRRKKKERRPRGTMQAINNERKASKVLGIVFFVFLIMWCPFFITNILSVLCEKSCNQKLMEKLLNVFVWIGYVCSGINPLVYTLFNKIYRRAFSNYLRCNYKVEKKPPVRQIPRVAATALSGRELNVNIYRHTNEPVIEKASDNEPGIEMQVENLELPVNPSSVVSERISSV

human H1 receptor = human H1 receptor (Homo sapiens, UniProt P35367); conditions: read-out: binding affinity (Ki) Histamine H1; cited from earlier work
Histamine H3 = Histamine H3 (Homo sapiens, UniProt Q9Y5N1); conditions: read-out: binding affinity (Ki) Histamine H3; cited from earlier work
human 5-HT2BR = target: T5, human 5-HT2BR (Homo sapiens, UniProt P41595); conditions: known drugs and commercial compounds; read-out: binding affinity (Ki) 5-HT2B / 5-HT2BR; cited from earlier work
T5 construct: expressed in transfected cells
T5 sequence (P41595 whole entry): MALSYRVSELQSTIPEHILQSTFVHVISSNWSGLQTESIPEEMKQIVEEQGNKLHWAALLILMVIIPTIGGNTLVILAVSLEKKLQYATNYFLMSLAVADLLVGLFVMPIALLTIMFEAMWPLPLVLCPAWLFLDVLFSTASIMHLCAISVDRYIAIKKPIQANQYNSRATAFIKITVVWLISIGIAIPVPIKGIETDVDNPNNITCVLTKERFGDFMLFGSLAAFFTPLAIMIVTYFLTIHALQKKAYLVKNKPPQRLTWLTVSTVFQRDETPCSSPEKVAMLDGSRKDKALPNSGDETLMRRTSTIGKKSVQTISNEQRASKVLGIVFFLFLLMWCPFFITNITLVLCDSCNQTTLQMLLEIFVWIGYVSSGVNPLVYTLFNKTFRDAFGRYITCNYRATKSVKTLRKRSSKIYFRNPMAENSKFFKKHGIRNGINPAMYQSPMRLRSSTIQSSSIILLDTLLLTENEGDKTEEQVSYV

5-HT7, sequence (P34969 whole entry, species assumed): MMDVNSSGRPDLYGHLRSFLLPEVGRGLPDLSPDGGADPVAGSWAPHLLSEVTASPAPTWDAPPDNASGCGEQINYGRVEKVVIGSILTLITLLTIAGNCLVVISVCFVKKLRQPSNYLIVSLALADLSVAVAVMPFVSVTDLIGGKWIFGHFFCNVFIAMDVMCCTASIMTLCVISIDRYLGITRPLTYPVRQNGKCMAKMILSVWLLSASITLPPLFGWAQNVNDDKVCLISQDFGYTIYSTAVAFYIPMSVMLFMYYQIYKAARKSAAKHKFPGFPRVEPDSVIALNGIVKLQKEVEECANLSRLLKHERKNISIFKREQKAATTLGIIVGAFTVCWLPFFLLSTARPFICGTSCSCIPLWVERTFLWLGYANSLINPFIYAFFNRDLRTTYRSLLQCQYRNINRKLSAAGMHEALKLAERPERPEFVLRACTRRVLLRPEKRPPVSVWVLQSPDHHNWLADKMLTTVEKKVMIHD
5-HT6, sequence (P50406 whole entry, species assumed): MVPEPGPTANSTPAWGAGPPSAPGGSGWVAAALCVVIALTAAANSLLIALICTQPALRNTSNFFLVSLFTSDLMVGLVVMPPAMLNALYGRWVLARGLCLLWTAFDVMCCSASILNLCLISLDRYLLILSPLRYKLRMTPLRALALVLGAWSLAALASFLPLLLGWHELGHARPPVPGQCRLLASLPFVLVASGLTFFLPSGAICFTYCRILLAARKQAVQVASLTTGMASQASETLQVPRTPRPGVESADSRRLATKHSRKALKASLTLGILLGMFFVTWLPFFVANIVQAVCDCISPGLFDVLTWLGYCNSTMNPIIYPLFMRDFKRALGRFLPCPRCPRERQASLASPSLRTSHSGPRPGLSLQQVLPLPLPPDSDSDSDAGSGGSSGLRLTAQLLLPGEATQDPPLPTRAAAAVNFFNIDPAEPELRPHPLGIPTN
T1 sequence (P28223 whole entry): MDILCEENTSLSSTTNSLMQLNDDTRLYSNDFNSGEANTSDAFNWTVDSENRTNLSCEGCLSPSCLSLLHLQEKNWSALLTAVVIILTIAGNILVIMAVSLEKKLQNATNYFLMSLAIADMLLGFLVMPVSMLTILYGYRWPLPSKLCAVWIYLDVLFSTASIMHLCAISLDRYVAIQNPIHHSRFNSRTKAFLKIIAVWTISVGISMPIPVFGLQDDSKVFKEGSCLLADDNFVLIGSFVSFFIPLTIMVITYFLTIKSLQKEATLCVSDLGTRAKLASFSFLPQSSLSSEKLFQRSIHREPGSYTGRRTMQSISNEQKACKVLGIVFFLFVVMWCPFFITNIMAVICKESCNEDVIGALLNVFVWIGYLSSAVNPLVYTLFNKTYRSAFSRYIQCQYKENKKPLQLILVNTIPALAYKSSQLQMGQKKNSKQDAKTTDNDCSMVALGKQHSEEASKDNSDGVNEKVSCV
Norepinephrine Transporter, sequence (P23975 whole entry): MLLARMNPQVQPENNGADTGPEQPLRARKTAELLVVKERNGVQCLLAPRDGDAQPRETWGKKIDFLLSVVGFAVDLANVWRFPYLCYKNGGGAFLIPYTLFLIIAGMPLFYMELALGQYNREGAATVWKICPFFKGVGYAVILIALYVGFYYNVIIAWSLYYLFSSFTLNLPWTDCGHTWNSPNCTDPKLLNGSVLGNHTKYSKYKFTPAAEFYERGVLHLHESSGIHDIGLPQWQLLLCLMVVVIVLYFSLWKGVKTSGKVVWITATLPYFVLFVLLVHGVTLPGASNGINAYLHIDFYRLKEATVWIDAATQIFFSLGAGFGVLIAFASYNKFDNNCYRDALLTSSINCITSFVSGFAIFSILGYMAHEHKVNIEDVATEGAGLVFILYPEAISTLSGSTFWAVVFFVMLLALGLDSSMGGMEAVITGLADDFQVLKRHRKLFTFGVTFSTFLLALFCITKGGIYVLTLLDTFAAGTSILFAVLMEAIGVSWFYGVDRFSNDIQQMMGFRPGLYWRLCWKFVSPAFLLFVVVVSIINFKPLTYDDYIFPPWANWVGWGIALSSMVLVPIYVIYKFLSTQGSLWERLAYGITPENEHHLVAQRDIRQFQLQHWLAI
5-HT1B, sequence (P28222 whole entry, species assumed): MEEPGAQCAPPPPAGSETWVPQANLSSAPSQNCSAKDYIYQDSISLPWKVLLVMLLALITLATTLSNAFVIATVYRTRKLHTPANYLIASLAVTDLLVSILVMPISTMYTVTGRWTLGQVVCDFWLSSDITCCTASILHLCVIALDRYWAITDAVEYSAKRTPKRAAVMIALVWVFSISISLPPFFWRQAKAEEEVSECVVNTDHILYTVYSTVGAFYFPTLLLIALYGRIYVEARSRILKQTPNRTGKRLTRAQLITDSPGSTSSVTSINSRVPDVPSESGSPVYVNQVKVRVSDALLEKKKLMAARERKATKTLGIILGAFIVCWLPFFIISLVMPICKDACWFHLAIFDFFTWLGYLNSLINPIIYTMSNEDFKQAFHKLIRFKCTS
5-HT Transporter, sequence (P31645 whole entry, species assumed): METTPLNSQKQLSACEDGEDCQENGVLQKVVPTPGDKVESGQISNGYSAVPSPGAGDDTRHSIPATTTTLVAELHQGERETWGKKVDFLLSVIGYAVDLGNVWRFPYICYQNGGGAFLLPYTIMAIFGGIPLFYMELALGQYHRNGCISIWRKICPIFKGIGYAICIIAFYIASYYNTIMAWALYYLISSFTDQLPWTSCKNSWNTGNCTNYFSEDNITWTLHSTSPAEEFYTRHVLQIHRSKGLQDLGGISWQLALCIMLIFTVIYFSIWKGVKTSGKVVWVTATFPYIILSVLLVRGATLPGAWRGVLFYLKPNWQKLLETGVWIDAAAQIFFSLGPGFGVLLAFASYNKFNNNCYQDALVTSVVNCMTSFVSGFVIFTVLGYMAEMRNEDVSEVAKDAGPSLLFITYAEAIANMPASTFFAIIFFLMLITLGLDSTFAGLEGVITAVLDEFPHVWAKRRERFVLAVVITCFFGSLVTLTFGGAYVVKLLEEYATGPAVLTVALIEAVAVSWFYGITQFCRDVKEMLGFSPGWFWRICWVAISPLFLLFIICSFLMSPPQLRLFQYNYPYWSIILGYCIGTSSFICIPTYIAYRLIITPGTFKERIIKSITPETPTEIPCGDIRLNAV
5-HT1D, sequence (P28221 whole entry, species assumed): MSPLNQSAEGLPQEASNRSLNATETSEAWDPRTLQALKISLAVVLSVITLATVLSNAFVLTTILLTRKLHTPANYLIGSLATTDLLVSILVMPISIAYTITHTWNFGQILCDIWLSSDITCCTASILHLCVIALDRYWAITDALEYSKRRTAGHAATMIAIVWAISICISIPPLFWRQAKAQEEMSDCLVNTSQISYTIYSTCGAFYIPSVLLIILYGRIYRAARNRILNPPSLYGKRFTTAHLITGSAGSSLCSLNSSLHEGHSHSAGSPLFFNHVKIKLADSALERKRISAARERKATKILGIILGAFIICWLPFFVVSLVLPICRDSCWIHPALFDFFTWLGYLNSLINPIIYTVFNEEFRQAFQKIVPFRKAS
human H1 receptor, sequence (P35367 whole entry): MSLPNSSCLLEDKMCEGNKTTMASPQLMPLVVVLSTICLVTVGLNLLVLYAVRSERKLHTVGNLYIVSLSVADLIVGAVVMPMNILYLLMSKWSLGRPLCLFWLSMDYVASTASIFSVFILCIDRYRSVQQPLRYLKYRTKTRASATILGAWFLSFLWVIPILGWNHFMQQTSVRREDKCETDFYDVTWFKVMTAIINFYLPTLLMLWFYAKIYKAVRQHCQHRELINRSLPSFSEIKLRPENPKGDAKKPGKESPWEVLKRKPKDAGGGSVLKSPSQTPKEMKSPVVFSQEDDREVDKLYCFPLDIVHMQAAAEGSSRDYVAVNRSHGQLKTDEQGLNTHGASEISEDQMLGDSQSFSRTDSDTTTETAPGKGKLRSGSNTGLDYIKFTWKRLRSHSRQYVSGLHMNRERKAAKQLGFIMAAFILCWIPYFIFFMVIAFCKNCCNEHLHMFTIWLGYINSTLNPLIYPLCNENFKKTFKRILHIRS
Histamine H3, sequence (Q9Y5N1 whole entry): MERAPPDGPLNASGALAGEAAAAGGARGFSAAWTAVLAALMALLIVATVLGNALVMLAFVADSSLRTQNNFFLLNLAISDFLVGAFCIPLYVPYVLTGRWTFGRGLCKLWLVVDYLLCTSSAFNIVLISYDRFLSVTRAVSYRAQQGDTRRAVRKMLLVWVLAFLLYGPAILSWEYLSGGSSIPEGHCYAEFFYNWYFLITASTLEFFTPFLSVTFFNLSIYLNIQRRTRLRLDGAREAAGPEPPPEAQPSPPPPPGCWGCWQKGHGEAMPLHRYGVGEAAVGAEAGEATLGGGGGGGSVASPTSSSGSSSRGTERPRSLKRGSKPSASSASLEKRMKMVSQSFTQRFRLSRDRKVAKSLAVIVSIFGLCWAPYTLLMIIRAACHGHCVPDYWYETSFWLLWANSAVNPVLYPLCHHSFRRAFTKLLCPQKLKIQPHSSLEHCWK

## CC(N)Cc1ccc2ccoc2c1 (centres unmarked) [Compound 6-APB, 6-APB]
5-HT7
  Ki: 155 nM
scn1lab mutant zebrafish [1]; 250 μM, 10 min LFP recording, 5 dpf larvae
  frequency of electrographic seizure (epileptiform) events: significant changes in the frequency of events; also recorded: significantly suppressed the frequency of electrographic seizure events
Human 5-HT2AR; known drugs and commercial compounds
  Ki: 1930 nM
scn1lab mutant zebrafish [2]; commercial 5-HT2BR/dopamine agonists, three concentrations, 30 and 90 min exposure, threshold ≥40%
  effect on seizure-like swim behavior (change in mean velocity): suppressed convulsive swim behaviors in a concentration-dependent manner
5-HT Transporter
  Ki: 2700 nM
5-HT1A
  Ki: 1280 nM

## CCNC(C)Cc1cccc(C(F)(F)F)c1 (centres unmarked) [FEN]
5-HT6
  Ki: 9080 nM
5-HT7
  Ki: 7310 nM
5-HT1B
  Ki: 1840 nM
Adrenergic Alpha1B
  Ki: 142 nM
5-HT1D
  Ki: 1260 nM

## C[C@H]1CNCCc2ccc(Cl)cc21 [LOR]
5-HT6
  Ki: 1980 nM
5-HT7
  Ki: 636 nM
[3]
  Ki: 1400 nM
5-HT5
  Ki: 3710 nM
5-HT1A
  Ki: 700 nM

## Clc1ccc(Cn2c(CN3CCCC3)nc3ccccc32)cc1 [clemizole]
Human 5-HT2CR
  Ki: 197 nM
scn1lab mutant zebrafish [1]; phenotype-based screen
  inhibition of electrographic seizures: effective inhibitor
Human H1 receptor
  Ki: 1.3 nM
Human 5-HT2AR
  Ki: 239 nM
scn1lab mutant zebrafish [2]; phenotype-based screen
  inhibition of spontaneous convulsive behaviors: effective inhibitor
Histamine H3
  Ki: 402 nM
Human 5-HT2BR
  Ki: 25 nM
